Tests used:
IL-17A = assay: Human TH17 cytokine inhibition as measured by ELISA (IL-17A); format: cell-based; conditions: 72 h; human CD4+ T cells under TH17-polarizing conditions, 3 days, supernatant ELISA, 0.1% DMSO
Method: (§1) Human TH17 Cytokine Inhibition as Measured by ELISA
(§2) Peripheral blood mononuclear cells (PBMCs) were sourced from freshly prepared leukocyte enriched plasma (buffy coat) from healthy donors (New York Blood Center). PBMCs were isolated by density gradient centrifugation using Ficoll-Paque™ PLUS (GE Healthcare). Human CD4+ T cells were seeded into 96-well plates (5×10^4 cells/well) and activated with plate-bound anti-human (h)-CD3 antibody and soluble h-aCD28 (both at 1 ug/ml; eBioscience) and differentiated into TH17 cells with 20 ng/mL h-IL-6, 5 ng/mL h-TGF-β1, 10 ng/mL h-IL-23 (eBioscience) and 10 ng/mL IL-1β (Miltenyi Biotec) in serum-free TexMACS Medium (Miltenyi Biotec) supplemented with 1% Penicillin/Streptomycin (Lonza) for 3 days. CD4+ T cells propagated under TH17-polarizing conditions were cultured in the presence or absence of various concentrations of compounds with a final concentration of 0.1% DMSO. Supernatants were collected and stored at −20° C. until assayed for IL-17A and IL-17F levels by “Ready-Set-Go” ELISA kits (eBioscience) as per manufacturer's instructions. Endpoint absorbance was read at 450 nm using a microplate reader (Perkin Elmer).

IL-17F = assay: Human TH17 cytokine inhibition as measured by ELISA (IL-17F); format: cell-based; conditions: 72 h; human CD4+ T cells under TH17-polarizing conditions, 3 days, supernatant ELISA, 0.1% DMSO
Method: as §1, §2

| IC50 (IL-17A) [µM] | IC50 (IL-17F) [µM] | Compound |
| --- | --- | --- |
| < 10 | < 10 | O=C(c1ccccc1)N1CCC(Cn2ccc3cc(-c4cn[nH]c4)ncc32)CC1 [Example 1, (4-((5-(1H-pyrazol-4-yl)-1H-pyrrolo[2,3-c]pyridin-1-yl)methyl)piperidin-1-yl)(phenyl)methanone] |
| < 10 | < 10 | CC(C)CC(=O)N1CCC(Cn2ccc3cc(-c4cn[nH]c4)ncc32)CC1 [Example 3] |
| < 10 | < 10 | O=C(c1ccccc1F)N1CCC(Cn2ccc3cc(-c4cn[nH]c4)ncc32)CC1 [Example 4, (4-((5-(1H-pyrazol-4-yl)-1H-pyrrolo[2,3-c]pyridin-1-yl)methyl)piperidin-1-yl)(2-fluorophenyl)methanone] |
| < 10 | < 10 | O=S(=O)(CCc1ccccc1)N1CCC(Cn2ccc3cc(-c4cn[nH]c4)ncc32)CC1 [Example 5, 1-((1-(phenethylsulfonyl)piperidin-4-yl)methyl)-5-(1H-pyrazol-4-yl)-1H-pyrrolo[2,3-c]pyridine] |
| < 10 | < 10 | CC(C)CS(=O)(=O)N1CCC(Cn2ccc3cc(-c4cn[nH]c4)ncc32)CC1 [Example 6, 1-((1-(isobutylsulfonyl)piperidin-4-yl)methyl)-5-(1H-pyrazol-4-yl)-1H-pyrrolo[2,3-c]pyridine] |
| < 10 | < 10 | O=S(=O)(c1ccccc1)N1CCC(Cn2ccc3cc(-c4cn[nH]c4)ncc32)CC1 [Example 7, 1-((1-(phenylsulfonyl)piperidin-4-yl)methyl)-5-(1H-pyrazol-4-yl)-1H-pyrrolo[2,3-c]pyridine] |
| < 10 | < 10 | O=S(=O)(c1ccccc1F)N1CCC(Cn2ccc3cc(-c4cn[nH]c4)ncc32)CC1 [Example 8, 1-((1-((2-fluorophenyl)sulfonyl)piperidin-4-yl)methyl)-5-(1H-pyrazol-4-yl)-1H-pyrrolo[2,3-c]pyridine] |
| < 10 | < 10 | O=C(c1ccccc1)N1CCC(Cn2ccc3cc(-c4cn[nH]c4)cnc32)CC1 [Example 9, (4-((5-(1H-pyrazol-4-yl)-1H-pyrrolo[2,3-b]pyridin-1-yl)methyl)piperidin-1-yl)(phenyl)methanone] |
| < 10 | < 10 | O=C(CCc1ccccc1)N1CCC(Cn2ccc3cc(-c4cn[nH]c4)cnc32)CC1 [Example 10, 1-(4-((5-(1H-pyrazol-4-yl)-1H-pyrrolo[2,3-b]pyridin-1-yl)methyl)piperidin-1-yl)-3-phenylpropan-1-one] |
| < 10 | < 10 | CC(C)CC(=O)N1CCC(Cn2ccc3cc(-c4cn[nH]c4)cnc32)CC1 [Example 11, 1-(4-((5-(1H-pyrazol-4-yl)-1H-pyrrolo[2,3-b]pyridin-1-yl)methyl)piperidin-1-yl)-3-methylbutan-1-one] |
| < 10 | < 10 | O=C(c1ccccc1F)N1CCC(Cn2ccc3cc(-c4cn[nH]c4)cnc32)CC1 [Example 12, (4-((5-(1H-pyrazol-4-yl)-1H-pyrrolo[2,3-b]pyridin-1-yl)methyl)piperidin-1-yl)(2-fluorophenyl)methanone] |
| < 10 | < 10 | O=S(=O)(CCc1ccccc1)N1CCC(Cn2ccc3cc(-c4cn[nH]c4)cnc32)CC1 [Example 13, 1-((1-(phenethylsulfonyl)piperidin-4-yl)methyl)-5-(1H-pyrazol-4-yl)-1H-pyrrolo[2,3-b]pyridine] |
| < 10 | < 10 | CC(C)CS(=O)(=O)N1CCC(Cn2ccc3cc(-c4cn[nH]c4)cnc32)CC1 [Example 14, 1-((1-(isobutylsulfonyl)piperidin-4-yl)methyl)-5-(1H-pyrazol-4-yl)-1H-pyrrolo[2,3-b]pyridine] |
| < 10 | < 10 | O=S(=O)(c1ccccc1)N1CCC(Cn2ccc3cc(-c4cn[nH]c4)cnc32)CC1 [Example 15, 1-((1-(phenylsulfonyl)piperidin-4-yl)methyl)-5-(1H-pyrazol-4-yl)-1H-pyrrolo[2,3-b]pyridine] |
| < 10 | < 10 | O=S(=O)(c1ccccc1F)N1CCC(Cn2ccc3cc(-c4cn[nH]c4)cnc32)CC1 [Example 16, 1-((1-((2-fluorophenyl)sulfonyl)piperidin-4-yl)methyl)-5-(1H-pyrazol-4-yl)-1H-pyrrolo[2,3-b]pyridine] |
